Assay results published in US12448394B2, “Heterocyclic pyrazole derivatives as type III receptor tyrosine kinase inhibitors” (DEVELOPMENT CENTER FOR BIOTECHNOLOGY, priority 2019, dated 2025).

Target: T1, FLT3 kinase (Homo sapiens, UniProt P36888)
T1 construct: purchased SignalChem
T1 sequence (P36888 27-993): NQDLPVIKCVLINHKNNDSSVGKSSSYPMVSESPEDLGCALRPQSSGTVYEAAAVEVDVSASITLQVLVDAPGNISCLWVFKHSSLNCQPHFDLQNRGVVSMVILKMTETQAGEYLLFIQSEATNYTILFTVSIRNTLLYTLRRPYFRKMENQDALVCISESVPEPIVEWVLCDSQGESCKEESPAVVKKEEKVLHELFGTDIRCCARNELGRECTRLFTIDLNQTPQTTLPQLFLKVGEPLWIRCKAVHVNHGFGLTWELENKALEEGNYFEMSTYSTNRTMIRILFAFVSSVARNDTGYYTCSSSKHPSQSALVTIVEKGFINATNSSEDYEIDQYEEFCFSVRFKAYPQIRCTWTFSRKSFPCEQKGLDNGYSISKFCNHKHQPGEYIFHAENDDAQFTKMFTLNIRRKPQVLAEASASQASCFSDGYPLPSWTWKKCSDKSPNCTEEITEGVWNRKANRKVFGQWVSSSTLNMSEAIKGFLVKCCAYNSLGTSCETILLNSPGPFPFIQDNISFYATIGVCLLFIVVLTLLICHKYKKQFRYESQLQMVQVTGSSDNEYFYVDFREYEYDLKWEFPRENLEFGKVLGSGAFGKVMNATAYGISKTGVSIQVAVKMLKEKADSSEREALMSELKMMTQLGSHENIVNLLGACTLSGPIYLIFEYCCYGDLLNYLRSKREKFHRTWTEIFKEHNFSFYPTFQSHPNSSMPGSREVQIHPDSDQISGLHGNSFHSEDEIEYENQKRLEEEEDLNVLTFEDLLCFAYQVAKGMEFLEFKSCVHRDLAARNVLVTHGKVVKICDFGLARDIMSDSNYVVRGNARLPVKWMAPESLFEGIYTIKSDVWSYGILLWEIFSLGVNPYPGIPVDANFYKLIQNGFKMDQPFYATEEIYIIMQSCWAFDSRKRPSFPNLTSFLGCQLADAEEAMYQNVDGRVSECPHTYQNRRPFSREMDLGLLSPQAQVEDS
Assay: FLT3 kinase assay (AlphaScreen)
Assay type: biochemical
Settings: read-out: Ranking of IC50 values, FLT3
Outline: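 Recombinant FLT3 (1.5 ng) phosphorylated biotinylated poly(Glu4:Tyr1) with 10 μM ATP in MOPS pH 7.0 buffer containing 10 mM MgCl2, 30 min at 30 °C, stopped with EDTA. Product detected by AlphaScreen; IC50 from duplicate serial dilutions.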

IC50 [nM] | Structure (SMILES)
1 to 10 | Cn1ncc2ccc(-c3n[nH]c4c3Cc3sc(-c5ccc(NC6CCOCC6)cc5)cc3-4)cc21 [Compound 72, N-(4-(3-(1-methyl-1H-indazol-6-yl)-1,4-dihydro-thieno[2′,3′:4,5]cyclopenta [1,2-c]pyrazol-6-yl)phenyl)tetrahydro-2H-pyran-4-amine]
1 to 10 | CN(c1ccc(-c2cc3c(s2)Cc2c(-c4ccc5cnn(C)c5c4)n[nH]c2-3)cc1)C1CCOCC1 [Compound 73, N-methyl-N-(4-(3-(1-methyl-1H-indazol-6-yl)-1,4-dihydrothieno [2′,3′:4,5]cyclopenta [1,2-c]pyrazol-6-yl)phenyl)tetrahydro-2H-pyran-4-amine]
< 1 | C[C@@H]1COCCN1Cc1ccc(-c2cc3c(s2)Cc2c(-c4ccc5cnn(C)c5c4)n[nH]c2-3)cc1 [Compound 74, (R)-3-methyl-4-(4-(3-(1-methyl-1H-indazol-6-yl)-1,4-dihydrothieno [2′,3′:4,5]cyclopenta [1,2-c]pyrazol-6-yl)benzyl)morpholine]
< 1 | C[C@H]1COCCN1Cc1ccc(-c2cc3c(s2)Cc2c(-c4ccc5cnn(C)c5c4)n[nH]c2-3)cc1 [Compound 75, (S)-3-methyl-4-(4-(3-(1-methyl-1H-indazol-6-yl)-1,4-dihydrothieno [2′,3′:4,5]cyclopenta [1,2-c]pyrazol-6-yl)benzyl)morpholine]
1 to 10 | Cn1ncc2ccc(-c3n[nH]c4c3Cc3sc(-c5ccc(C=C6CCOCC6)cc5)cc3-4)cc21 [Compound 76, 3-(1-methyl-1H-indazol-6-yl)-6-(4-((tetrahydro-4H-pyran-4-ylidene)methyl)phenyl)-1,4-dihydrothieno[2′,3′:4,5] cyclopenta[1,2-c]pyrazole]
1 to 10 | Cn1ncc2ccc(-c3n[nH]c4c3Cc3sc(-c5ccc(CC6CCOCC6)cc5)cc3-4)cc21 [Compound 77, 3-(1-methyl-1H-indazol-6-yl)-6-(4-((tetrahydro-2H-pyran-4-yl)methyl)phenyl)-1,4-dihydrothieno [2′,3′:4,5]cyclopenta [1,2-c]pyrazole]
< 1 | Cn1ncc2ccc(-c3n[nH]c4c3Cc3sc(N5CCOCC5)cc3-4)cc21 [Compound 78, 4-(3-(1-methyl-1H-indazol-6-yl)-1,4-dihydro-thieno[2′,3′:4,5]cyclopenta [1,2-c]pyrazol-6-yl) morpholine]
< 1 | Cn1ncc2ccc(-c3n[nH]c4c3Cc3sc(N5CCOCC5=O)cc3-4)cc21 [Compound 79, 4-(3-(1-methyl-1H-indazol-6-yl)-1,4-dihydro-thieno[2′,3′:4,5]cyclopenta [1,2-c]pyrazol-6-yl) morpholin-3-one]
< 1 | Cn1ncc2ccc(-c3n[nH]c4c3Cc3sc(-c5ccc(CN6CCC(N7CCOCC7)CC6)cc5)cc3-4)cc21 [Compound 80, 4-(1-(4-(3-(1-methyl-1H-indazol-6-yl)-1,4-dihydro-thieno[2′,3′:4,5]cyclopenta [1,2-c]pyrazol-6-yl)benzyl)piperidin-4-yl) morpholine]

More lines, now with the values behind:

Structure (SMILES) | IC50 [nM]
Cn1ncc2ccc(-c3n[nH]c4c3Cc3sc(-c5csc(CN6CCOCC6)c5)cc3-4)cc21 [Compound 52, 4-((4-(3-(1-methyl-1H-indazol-6-yl)-1,4-dihydro-thieno[2′,3′:4,5]cyclopenta [1,2-c]pyrazol-6-yl)thiophen-2-yl)methyl) morpholine] | < 1
Cn1ncc2ccc(-c3n[nH]c4c3Cc3sc(-c5cc(F)c(CN6CCOCC6)c(F)c5)cc3-4)cc21 [Compound 53, 4-(2,6-difluoro-4-(3-(1-methyl-1H-indazol-6-yl)-1,4-dihydrothieno [2′,3′:4,5]cyclopenta [1,2-c]pyrazol-6-yl)benzyl)morpholine] | < 1
C[C@@H]1CN(Cc2ccc(-c3cc4c(s3)Cc3c(-c5ccc6cnn(C)c6c5)n[nH]c3-4)cc2)C[C@H](C)O1 [Compound 54, (2S,6R)-2,6-dimethyl-4-(4-(3-(1-methyl-1H-indazol-6-yl)-1,4-dihydro-thieno[2′,3′:4,5]cyclopenta [1,2-c]pyrazol-6-yl)benzyl)morpholine] | < 1
Cn1ncc2ccc(-c3n[nH]c4c3Cc3sc(-c5cc(C(=O)N6CCOCC6)ccn5)cc3-4)cc21 [Compound 56, (2-(3-(1-methyl-1H-indazol-6-yl)-1,4-dihydro-thieno[2′,3′:4,5]cyclopenta [1,2-c]pyrazol-6-yl)pyridin-4-yl)(morpholino) methanone] | 1 to 10
Cn1ncc2ccc(-c3n[nH]c4c3Cc3sc(C5=CCN(C(=O)N6CCOCC6)CC5)cc3-4)cc21 [Compound 57, (4-(3-(1-methyl-1H-indazol-6-yl)-1,4-dihydro-thieno[2′,3′:4,5]cyclopenta [1,2-c]pyrazol-6-yl)-3,6-dihydropyridin-1(2H)-yl) (morpholino)methanone] | < 1
Cn1ncc2ccc(-c3n[nH]c4c3Cc3sc(C5CCN(C(=O)OC(C)(C)C)CC5)cc3-4)cc21 [Compound 58, tert-butyl-4-(3-(1-methyl-1H-indazol-6-yl)-1,4-dihydrothieno[2′,3′:4,5]cyclopenta[1,2-c]pyrazol-6-yl)piperidine-1-carboxylate] | 1 to 10
Cn1ncc2ccc(-c3n[nH]c4c3Cc3sc(-c5ccc(CN6CCOCC6=O)cc5)cc3-4)cc21 [Compound 59, 4-(4-(3-(1-methyl-1H-indazol-6-yl)-1,4-dihydro-thieno[2′,3′:4,5]cyclopenta [1,2-c]pyrazol-6-yl)benzyl)morpholin-3-one] | < 1
Cn1ncc2ccc(-c3n[nH]c4c3Cc3sc(-c5csc(C(=O)N6CCOCC6)n5)cc3-4)cc21 [Compound 60, (4-(3-(1-methyl-1H-indazol-6-yl)-1,4-dihydro-thieno[2′,3′:4,5]cyclopenta [1,2-c]pyrazol-6-yl)thiazol-2-yl)(morpholino) methanone] | < 1
Cn1ncc2ccc(-c3n[nH]c4c3Cc3sc(-c5ccc(CN6CCCCC6=O)cc5)cc3-4)cc21 [Compound 61, 1-(4-(3-(l-methyl-1H-indazol-6-yl)-1,4-dihydro-thieno[2′,3′:4,5]cyclopenta [1,2-c]pyrazol-6-yl)benzyl)piperidin-2-one] | 1 to 10
Cn1ncc2ccc(-c3n[nH]c4c3Cc3sc(-c5ccc(CN6CCNC(=O)C6)cc5)cc3-4)cc21 [Compound 63, 4-(4-(3-(1-methyl-1H-indazol-6-yl)-1,4-dihydro-thieno[2′,3′:4,5]cyclopenta [1,2-c]pyrazol-6-yl)benzyl)piperazin-2-one] | 1 to 10
Cn1ncc2ccc(-c3n[nH]c4c3Cc3sc(-c5ccc(CN6CCCC6=O)cc5)cc3-4)cc21 [Compound 64, 1-(4-(3-(1-methyl-1H-indazol-6-yl)-1,4-dihydro-thieno[2′,3′:4,5]cyclopenta [1,2-c]pyrazol-6-yl)benzyl)pyrrolidin-2-one] | 1 to 10
CC1C(=O)N(C)CCN1Cc1ccc(-c2cc3c(s2)Cc2c(-c4ccc5cnn(C)c5c4)n[nH]c2-3)cc1 (centres unmarked) [Compound 65, 1,3-dimethyl-4-(4-(3-(1-methyl-1H-indazol-6-yl)-1,4-dihydrothieno [2′,3′:4,5]cyclopenta [1,2-c]pyrazol-6-yl)benzyl)piperazin-2-one] | 1 to 10
Cn1ncc2ccc(-c3n[nH]c4c3Cc3sc(-c5ccc(CCN6CCOCC6=O)cc5)cc3-4)cc21 [Compound 66, 4-(4-(3-(1-methyl-1H-indazol-6-yl)-1,4-dihydro-thieno[2′,3′:4,5]cyclopenta [1,2-c]pyrazol-6-yl)phenethyl)morpholin-3-one] | < 1
Cn1ncc2ccc(-c3n[nH]c4c3Cc3sc(-c5ccc(CN6CCC(F)(F)C6)cc5)cc3-4)cc21 [Compound 67, 6-(4-((3,3-difluoro-pyrrolidin-1-yl)methyl)phenyl)-3-(1-methyl-1H-indazol-6-yl)-1,4-dihydro-thieno[2′,3′:4,5]cyclopenta [1,2-c]pyrazole] | 1 to 10
Cn1ncc2ccc(-c3n[nH]c4c3Cc3sc(-c5ccc(OCCN6CCOCC6)cc5)cc3-4)cc21 [Compound 69, 4-(2-(4-(3-(1-methyl-1H-indazol-6-yl)-1,4-dihydro-thieno[2′,3′:4,5]cyclopenta [1,2-c]pyrazol-6-yl)phenoxy)ethyl)morpholine] | < 1
Cn1ncc2ccc(-c3n[nH]c4c3Cc3sc(-c5cccc(OCCN6CCOCC6)c5)cc3-4)cc21 [Compound 70, 4-(2-(3-(3-(1-methyl-1H-indazol-6-yl)-1,4-dihydro-thieno[2′,3′:4,5]cyclopenta [1,2-c]pyrazol-6-yl)phenoxy)ethyl)morpholine] | 1 to 10
Cn1ncc2ccc(-c3n[nH]c4c3Cc3sc(C#CCN5CCOCC5)cc3-4)cc21 [Compound 71, 4-(3-(3-(1-methyl-1H-indazol-6-yl)-1,4-dihydro-thieno[2′,3′:4,5]cyclopenta [1,2-c]pyrazol-6-yl)prop-2-yn-1-yl)morpholine] | 1 to 10
